From ChEMBL document CHEMBL4483862, “Open-source discovery of chemical leads for next-generation chemoprotective antimalarials” (2018)

System: Plasmodium berghei
Test: Luciferase/luciferin-expressing antifolate-resistant parasites were used to infect a culture of HepG2 cells that were pre-incubated with compounds. Infected hepatocytes emit light due to the luciferase reaction. Assay results are presented as the percent inhibition of light emission compared to control. […]
Type: functional
Conditions: sporozoite; for IC90: read-out: LUCIFERASE INFECTION ASSAY - IC90

Row | Structure (SMILES) | IC90 | further results
1 | NS(=O)(=O)c1ccc(CCNc2nn3c(-c4cccc(OC(F)(F)F)c4)cnc3s2)cc1 | > 6.83 µM | IC50 (FFLUC_HILL_SLOPE 3.32, FFLUC_R_SQUARED 0.88, HEPG2TOX_HILL_SLOPE 6.82, HEPG2TOX_R_SQUARED 0.258, PBLUC_HILL_SLOPE 3.52, PBLUC_R_SQUARED 0.409, read-out: LUCIFERASE INFECTION ASSAY - IC50): 4 µM
2 | O=[N+]([O-])c1ccc(-c2nnc(SCc3c(Cl)cccc3Cl)s2)o1 | > 8.5 µM | IC50 (FFLUC_HILL_SLOPE 3.16, FFLUC_R_SQUARED 0.676, read-out: LUCIFERASE INFECTION ASSAY - IC50): > 8.5 µM
3 | CCCCCC1C/C(=C\c2ccc(C(F)(F)F)cc2)C(=O)/C(=C/c2ccc(C(F)(F)F)cc2)C1 (stereo not given) | > 6.87 µM | IC50 (FFLUC_HILL_SLOPE 3.17, FFLUC_R_SQUARED 0.803, HEPG2TOX_HILL_SLOPE 11.8, HEPG2TOX_R_SQUARED 0.221, PBLUC_HILL_SLOPE 15.7, PBLUC_R_SQUARED 0.195, read-out: LUCIFERASE INFECTION ASSAY - IC50): 6.26 µM
4 | COCC(C)n1c(COc2ccccc2F)nnc1SC(C(=O)Nc1cc(C(F)(F)F)ccc1Cl)c1ccccc1 (stereo not given) | 9.85 µM | IC50 (FFLUC_HILL_SLOPE 3.29, FFLUC_R_SQUARED 0.0514, HEPG2TOX_HILL_SLOPE 2.28, HEPG2TOX_R_SQUARED 0.446, PBLUC_HILL_SLOPE 4.03, PBLUC_R_SQUARED 0.508, read-out: LUCIFERASE INFECTION ASSAY - IC50): 5.71 µM
5 | O=C(c1ccccc1)c1cc(-c2nc3ccccc3[nH]2)c(-c2ccccc2)n2c1nc1ccccc12 | > 10 µM | IC50 (FFLUC_HILL_SLOPE 3.37, FFLUC_R_SQUARED 0.587, PBLUC_HILL_SLOPE 3.5, PBLUC_R_SQUARED 0.455, read-out: LUCIFERASE INFECTION ASSAY - IC50): 6.85 µM
6 | O=C(Nc1nc(-c2c[nH]c3ccccc23)cs1)C1CCN(S(=O)(=O)/C=C/c2ccccc2)CC1 | > 10 µM | IC50 (FFLUC_HILL_SLOPE 3.31, FFLUC_R_SQUARED 0.738, HEPG2TOX_HILL_SLOPE 1.04, HEPG2TOX_R_SQUARED 0.854, PBLUC_HILL_SLOPE 3.38, PBLUC_R_SQUARED 0.26, read-out: LUCIFERASE INFECTION ASSAY - IC50): 5.31 µM
7 | Cc1ccc(-n2c(Sc3ccc4nnnn4n3)nc3sc4c(c3c2=O)CCC(C)C4)cc1C (stereo not given) | > 10 µM | IC50 (FFLUC_HILL_SLOPE 3.23, FFLUC_R_SQUARED 0.696, PBLUC_HILL_SLOPE 2.23, PBLUC_R_SQUARED 0.861, read-out: LUCIFERASE INFECTION ASSAY - IC50): 4.15 µM
8 | CC(NC(=O)c1cc(C2CC2)nn1-c1ccccc1)c1ccc(F)cc1F (stereo not given) | > 10 µM | IC50 (FFLUC_HILL_SLOPE 3.16, FFLUC_R_SQUARED 0.345, read-out: LUCIFERASE INFECTION ASSAY - IC50): > 10 µM
9 | N#CC(C#N)=C/C=C(/Sc1ccc(F)c(Cl)c1)c1ccc(Cl)cc1 | 7.65 µM | IC50 (FFLUC_HILL_SLOPE 3.34, FFLUC_R_SQUARED 0.746, HEPG2TOX_HILL_SLOPE 5.06, HEPG2TOX_R_SQUARED 0.992, PBLUC_HILL_SLOPE 1.74, PBLUC_R_SQUARED 0.619, read-out: LUCIFERASE INFECTION ASSAY - IC50): 2.17 µM
10 | CCOC(=O)c1c(S(=O)(=O)N2CCN(Cc3ccccc3)CC2)c(-c2ccccc2)n(-c2ccccc2)c1C | > 6.07 µM | IC50 (FFLUC_HILL_SLOPE 3.32, FFLUC_R_SQUARED 0.581, read-out: LUCIFERASE INFECTION ASSAY - IC50): > 6.07 µM
11 | COc1ccc(Cl)cc1NC(=O)COC(=O)COc1ccc(/C=C2\SC(=S)N(c3cccc(C(F)(F)F)c3)C2=O)cc1OC | > 10 µM | IC50 (FFLUC_HILL_SLOPE 3.19, FFLUC_R_SQUARED 0.292, read-out: LUCIFERASE INFECTION ASSAY - IC50): > 10 µM
12 | CCOC(=O)c1sc(NC(=O)c2cccc(S(=O)(=O)N(C)c3ccc(OC)cc3)c2)cc1C | 9.74 µM | IC50 (FFLUC_HILL_SLOPE 3.21, FFLUC_R_SQUARED 0.745, HEPG2TOX_HILL_SLOPE 15.7, HEPG2TOX_R_SQUARED 0.428, PBLUC_HILL_SLOPE 5.31, PBLUC_R_SQUARED 0.793, read-out: LUCIFERASE INFECTION ASSAY - IC50): 6.44 µM
13 | COc1cc(Cl)c(C)cc1-n1c(SC(C(C)=O)c2ccccc2)nc2ccccc2c1=O (stereo not given) | > 10 µM | IC50 (FFLUC_HILL_SLOPE 3.43, FFLUC_R_SQUARED 0.242, HEPG2TOX_HILL_SLOPE 4.83, HEPG2TOX_R_SQUARED 0.785, PBLUC_HILL_SLOPE 3.87, PBLUC_R_SQUARED 0.683, read-out: LUCIFERASE INFECTION ASSAY - IC50): 6.65 µM
14 | O=C(CCCc1ccc(F)cc1)c1ccc2c(c1)OCCO2 | 0.926 µM | IC50 (FFLUC_HILL_SLOPE 3.34, FFLUC_R_SQUARED 0.538, PBLUC_HILL_SLOPE 0.746, PBLUC_R_SQUARED 0.706, read-out: LUCIFERASE INFECTION ASSAY - IC50): 0.0487 µM
15 | CC1CCc2sc(C(=O)N/N=C/c3sc(N4CCCCC4)nc3-c3cccs3)cc2C1 (stereo not given) | 5.03 µM | IC50 (FFLUC_HILL_SLOPE 3.43, FFLUC_R_SQUARED 0.712, HEPG2TOX_HILL_SLOPE 2.9, HEPG2TOX_R_SQUARED 0.728, PBLUC_HILL_SLOPE 3.74, PBLUC_R_SQUARED 0.491, read-out: LUCIFERASE INFECTION ASSAY - IC50): 2.79 µM
16 | O=C(Nc1ccc2c(c1)OC1(CCCCC1)O2)c1ccc[nH]c1=O | > 10 µM | IC50 (FFLUC_HILL_SLOPE 3.32, FFLUC_R_SQUARED 0.581, PBLUC_HILL_SLOPE 0.537, PBLUC_R_SQUARED 0.823, read-out: LUCIFERASE INFECTION ASSAY - IC50): 0.172 µM
17 | CCOc1c(Br)cc(C2NCC(c3cccc(OC)c3OC)c3c2[nH]c2ccccc32)cc1OC (stereo not given) | > 10 µM | IC50 (FFLUC_HILL_SLOPE 3.42, FFLUC_R_SQUARED 0.537, read-out: LUCIFERASE INFECTION ASSAY - IC50): > 10 µM
18 | Cc1cc(C2=NNC(=NC(C)(C)C)SC2)c(C)n1-c1ccccc1 | > 10 µM | IC50 (FFLUC_HILL_SLOPE 3.44, FFLUC_R_SQUARED 0.101, read-out: LUCIFERASE INFECTION ASSAY - IC50): > 10 µM
19 | COc1cc(/C=N/Nc2ccc(C(F)(F)F)cn2)ccc1OS(=O)(=O)c1ccc(C)c([N+](=O)[O-])c1 | > 10 µM | IC50 (FFLUC_HILL_SLOPE 3.31, FFLUC_R_SQUARED 0.75, read-out: LUCIFERASE INFECTION ASSAY - IC50): > 10 µM
20 | Clc1cc2c(c3ncccc13)OCN(Cc1ccco1)C2 | 1.44 µM | IC50 (FFLUC_HILL_SLOPE 3.15, FFLUC_R_SQUARED 0.751, HEPG2TOX_HILL_SLOPE 1.67, HEPG2TOX_R_SQUARED 0.873, PBLUC_HILL_SLOPE 9.79, PBLUC_R_SQUARED 0.762, read-out: LUCIFERASE INFECTION ASSAY - IC50): 1.15 µM
21 | COc1ccc(/C=C(\C#N)C(=O)N(CCCN2C(=O)c3cccc4cccc(c34)C2=O)c2ccc(C)cc2C)cc1 | > 10 µM | IC50 (FFLUC_HILL_SLOPE 3.25, FFLUC_R_SQUARED 0.523, read-out: LUCIFERASE INFECTION ASSAY - IC50): > 10 µM
22 | Cc1ccc2nc(NC(=O)c3cccc(Cl)c3)c(C(=O)NCC(C)C)n2c1 | 1.3 µM | IC50 (FFLUC_HILL_SLOPE 3.3, FFLUC_R_SQUARED 0.594, HEPG2TOX_HILL_SLOPE 1.2, HEPG2TOX_R_SQUARED 0.909, PBLUC_HILL_SLOPE 9.89, PBLUC_R_SQUARED 0.561, read-out: LUCIFERASE INFECTION ASSAY - IC50): 1.04 µM
23 | NC(=O)c1ccsc1NC(=O)Cc1coc2cc3c(cc12)CCC3 | 3.88 µM | IC50 (FFLUC_HILL_SLOPE 3.24, FFLUC_R_SQUARED 0.678, PBLUC_HILL_SLOPE 11.8, PBLUC_R_SQUARED 0.833, read-out: LUCIFERASE INFECTION ASSAY - IC50): 3.22 µM
24 | O=C(Nc1nonc1-c1ccc(Cl)cc1)C(c1ccccc1)c1ccccc1 | 8.22 µM | IC50 (FFLUC_HILL_SLOPE 3.18, FFLUC_R_SQUARED 0.644, PBLUC_HILL_SLOPE 3.44, PBLUC_R_SQUARED 0.465, read-out: LUCIFERASE INFECTION ASSAY - IC50): 4.34 µM
25 | CCCC(C)C(=O)Nc1nc2ccc(C)cn2c1C(=O)NC1CCCCC1 (stereo not given) | > 8.91 µM | IC50 (FFLUC_HILL_SLOPE 3.24, FFLUC_R_SQUARED 0.792, read-out: LUCIFERASE INFECTION ASSAY - IC50): > 8.91 µM
26 | NC(=O)C1CCN(c2nc(-c3ccc(Cl)cc3)nc3sc4c(c23)CCC4)CC1 | 3.79 µM | IC50 (FFLUC_HILL_SLOPE 3.15, FFLUC_R_SQUARED 0.774, HEPG2TOX_HILL_SLOPE 6.41, HEPG2TOX_R_SQUARED 0.32, PBLUC_HILL_SLOPE 20.1, PBLUC_R_SQUARED 0.486, read-out: LUCIFERASE INFECTION ASSAY - IC50): 3.4 µM
27 | O=C(NNC1=NN(c2ccccc2)c2ccc(Br)cc2N1)c1ccc(F)cc1 | > 10 µM | IC50 (FFLUC_HILL_SLOPE 3.33, FFLUC_R_SQUARED 0.811, read-out: LUCIFERASE INFECTION ASSAY - IC50): > 10 µM
28 | CC(C)NC(=S)N/N=C1\C(=O)Nc2ccc(C(C)C)cc21 | 4.02 µM | IC50 (FFLUC_HILL_SLOPE 3.36, FFLUC_R_SQUARED 0.392, HEPG2TOX_HILL_SLOPE 1.41, HEPG2TOX_R_SQUARED 0.93, PBLUC_HILL_SLOPE 4.04, PBLUC_R_SQUARED 0.837, read-out: LUCIFERASE INFECTION ASSAY - IC50): 2.33 µM
29 | O=C(Cc1cccs1)NCC(c1ccccc1Cl)c1c[nH]c2ccccc12 (stereo not given) | 9.35 µM | IC50 (FFLUC_HILL_SLOPE 3.31, FFLUC_R_SQUARED 0.784, PBLUC_HILL_SLOPE 3.75, PBLUC_R_SQUARED 0.47, read-out: LUCIFERASE INFECTION ASSAY - IC50): 5.2 µM
30 | Oc1c(C(Nc2ccccn2)c2ccc(Cl)cc2Cl)ccc2cccnc12 (stereo not given) | 5.13 µM | IC50 (FFLUC_HILL_SLOPE 3.3, FFLUC_R_SQUARED 0.0348, HEPG2TOX_HILL_SLOPE 1.34, HEPG2TOX_R_SQUARED 0.812, PBLUC_HILL_SLOPE 6.8, PBLUC_R_SQUARED 0.449, read-out: LUCIFERASE INFECTION ASSAY - IC50): 3.71 µM
